In patent US8236820B2, “Anti-inflammatory compounds and uses thereof” (priority 2007, dated 2012):
Where two headings read alike, the source gives them in different places.

Tests used:
BxPC-3 = assay: Cell viability (MTT) assay, 24-h IC50, BxPC-3
Method: Cells were incubated at 37° C. in 5% CO2. Cells were seeded at 5.5×10^4 cells/cm^2, allowed to attach overnight, and the following morning cells were treated with each of the test compounds.
Cell viability assay: We used an assay based on the reduction of 3-(4,5-dimethylthiazol-2-yl)-2,5-diphenyltetrazolium bromide dye (MTT), which was determined according to the manufacture's protocol (Promega, Madison, Wis., USA).

SW480 = assay: Cell viability (MTT) assay, 24-h IC50, SW480; type: cell-based, human
HT29 = assay: Cell viability (MTT) assay, 24-h IC50, HT29; type: cell-based, human
MIA-PaCa-2 = assay: Cell viability (MTT) assay, 24-h IC50, MIA-PaCa-2; type: cell-based, human
[1] = tested on: MDA-MB 231 human breast cancer cells; assay: Cell proliferation assay (BrdU incorporation) in MDA-MB231; type: cell-based; conditions: MDA-MB231, each compound at its IC50 concentration
Source text: Cell proliferation assay: To determine cell proliferation, we measured the incorporation of 5-bromo-2′-deoxyuridine (BrdU) into newly synthesized cellular DNA, following the manufacture's instructions (BD Biosciences, San Jose, Calif.).
(§1) As summarized in Table 2 below, in MDA-MB231 cells, all six compounds, each used at its IC50 concentration, a) inhibited cell proliferation between 6% and 50% compared to controls; b) induced both early and late apoptosis, as well as necrosis; and c) inhibited the G1 to S cell cycle phase transition. In this Table, the values for proliferation are the percentage of the corresponding control values. Those for apoptosis and necrosis refer to the percentage of cells in each category with respect to the entire cell population, and are to be compared to the control (vehicle only-treated) cells (uppermost row).

MDA-MB231 = assay: Cell viability (MTT) assay, 24-h IC50, MDA-MB231; type: cell-based, human
MCF-7 = assay: Cell viability (MTT) assay, 24-h IC50, MCF-7; type: cell-based, human
[2] = tested on: MDA-MB 231 human breast cancer cells; assay: Annexin V and propidium iodide staining in MDA-MB231; type: cell-based; conditions: MDA-MB231, compound at its IC50, 24 h; for Necrosis (%): % of entire cell population (control 0.6); for Early apoptosis (%): % of entire cell population (control 1.4); for Late apoptosis (%): % of entire cell population (control 2.0)
Method: Annexin V and propidium iodide (PI) staining: Cells were seeded at a density of 1×10^5 cells/well and treated for 24 h with various concentrations of each compound or equivalent volumes of DMSO. Briefly, after incubation with the test compounds, cells were trypsinized and stained with Annexin V-FITC (Invitrogen) and PI (0.5 μg/ml). Following incubation at room temperature for 15 min in the dark, annexin V-FITC and PI fluorescence intensities were analyzed by FACScaliber (BD Bioscience). Annexin V (+)/PI (−) cells are in early apoptosis, annexin V (+)/PI (+) cells are in late apoptosis (secondary necrosis), and annexin V (−)/ PI (+) cells are necrotic cells.
as §1

[3] = tested on: spermidine/spermine N^1-acetyltransferase (SSAT); assay: SSAT enzymatic activity in SW480 cells; type: cell-based, human; conditions: SW480, 24 h; phospho-sulindac I 85 μM; P<0.05 versus control
Method: (§2) SW480 cells were incubated without or with phospho-sulindac I (P-S) for up to 24 h and SSAT activity was determined at each time point by determining the amount of labelled N1-acetylspermidine synthesized from [^14C]acetyl-CoA and unlabeled spermidine.
(§3) The effect of phospho-sulindac I on polyamines is mediated, at least in part, by activation of SSAT by phospho-sulindac I. It is known that conventional sulindac induces SSAT activity (Babbar et al., Cyclooxygenase-independent induction of apoptosis by sulindac sulfone is mediated by polyamines in colon cancer. J Biol Chem 2003; 278(48):47762-75.). Incubation of HT-29 and SW480 cells with 85 μM phospho-sulindac I for 24 h leads to a 3- and 4.4-fold increase of SSAT activity (P<0.05 versus control), respectively. On the other hand, incubation with sulindac led to a 1.5 and 2.5-fold increase of SSAT activity (P<0.05 versus control) in HT-29 and SW480 cells, respectively.

APC^Min/+ mice = conditions: literature (Yang et al. 2003); cited from earlier work
[4] = tested on: spermidine/spermine N^1-acetyltransferase (SSAT); assay: SSAT enzymatic activity in HT-29 cells; type: cell-based, human; conditions: HT-29, 24 h; phospho-sulindac I 85 μM; P<0.05 versus control
Method: as §2, §3

[5] = type: in vivo; conditions: 5 days oral gavage; phospho-sulindac I 317 mg/kg/d, sulindac 200 mg/kg/day; 8 mice/group
Method: Phospho-sulindac I lacked gastrointestinal toxicity in mice; gastrointestinal toxicity is the major side effect of sulindac as well as of the entire class of NSAIDs. We evaluated in mice the potential toxicity of phospho-sulindac I. Three groups, each consisting of 8 female C57BL/6J+/+mice 6 wks of age, were treated for 5 days by oral gavage with equimolar amounts of phospho-sulindac I (317 mg/kg/d) or conventional sulindac (200 mg/kg/day) or vehicle. Mice were weighed at time 0 and on days 3 and 5. Mice surviving to the end of the study were euthanized and necropsied.
The stomachs of sulindac-treated animals were larger than those of the other two groups and in some the liver appeared hyperemic.

[6] = read-out: 24-h IC50, BxPC-3 pancreatic cancer cells, 24 h
[7] = SW480 colon cancer cells, 24 h, read-out: 24-h IC50
[8] = HT29 colon cancer cells, 24 h, read-out: 24-h IC50
[9] = MIA-PaCa-2 pancreatic cancer cells, 24 h, read-out: 24-h IC50
[10] = MDA-MB231 breast cancer cells, 24 h, read-out: 24-h IC50
[11] = MCF-7 breast cancer cells, 24 h, read-out: 24-h IC50
[12] = Homo sapiens, BXPC-3, 24 h, read-out: 24-h IC50
[13] = Homo sapiens, SW480, 24 h, read-out: 24-h IC50
[14] = Homo sapiens, HT-29, 24 h, read-out: 24-h IC50
[15] = Homo sapiens, MIA PaCa-2, 24 h, read-out: 24-h IC50
[16] = Homo sapiens, MDA-MB-231, 24 h, read-out: 24-h IC50
[17] = Homo sapiens, MCF7, 24 h, read-out: 24-h IC50
[18] = Homo sapiens, BXPC-3, 24 h, read-out: IC50 (growth of human cancer cells)
[19] = Homo sapiens, SW480 colon cancer cells, 24 h, read-out: 24-h IC50
[20] = Homo sapiens, HT-29, HT29 colon cancer cells, 24 h, read-out: 24-h IC50
[21] = Homo sapiens, MIA-PaCa-2 pancreatic cancer cells, 24 h, read-out: 24-h IC50
[22] = Homo sapiens, MDA-MB-231, MDA-MB231 breast cancer cells, 24 h, read-out: 24-h IC50
[23] = Homo sapiens, MCF7, MCF-7 breast cancer cells, 24 h, read-out: 24-h IC50

IC50 (SW480; [19])	IC50 (HT29; [20])	IC50 (MIA-PaCa-2; [21])	IC50 (MDA-MB231; [22])	IC50 (MCF-7; [23])	Structure (SMILES)	Proliferation (% control) [1]	Necrosis (%) [2]	Early apoptosis (%) [2]	Late apoptosis (%) [2]	IC50 (BxPC-3; [12])	other results
					CCOP1(=O)OCC(COC(=O)c2ccccc2OC(C)=O)O1 (stereo not drawn) [Glycero-phospho-aspirin I]	94 % control	0.3%	4.8%	3.2%		IC50 (BxPC-3; [6]): 63 µM; IC50 (SW480; [7]): 169 µM; IC50 (HT29; [8]): 54 µM; IC50 (MIA-PaCa-2; [9]): 303 µM; IC50 (MDA-MB231; [10]): 199 µM; IC50 (MCF-7; [11]): 32 µM
					CCOP(=O)(OCC)OCC(COC(=O)c1ccccc1OC(C)=O)OP(=O)(OCC)OCC (stereo not drawn) [Glycero-phospho-aspirin II]	52 % control	0.4%	2.4%	2.2%		IC50 (BxPC-3; [6]): 38 µM; IC50 (SW480; [7]): 170 µM; IC50 (HT29; [8]): 40 µM; IC50 (MIA-PaCa-2; [9]): 242 µM; IC50 (MDA-MB231; [10]): 360 µM; IC50 (MCF-7; [11]): 248 µM
					CCOP(=O)(OCC)OCCCCOC(=O)C(C)c1ccc(CC(C)C)cc1 (stereo not drawn) [Phospho-Ibuprofen]	50 % control	5.6%	7.4%	43.2%	53 µM	IC50 (SW480; [13]): 75 µM; IC50 (HT29; [14]): 82 µM; IC50 (MIA-PaCa-2; [15]): 104 µM; IC50 (MDA-MB231; [16]): 28 µM; IC50 (MCF-7; [17]): 79 µM
					CCCC(CCC)C(=O)O [VPA, Valproic acid, reference compound]						IC50 (BxPC-3; [18]): 1680 µM; IC50 (SW480; Homo sapiens, Table 3, SW480, 24-h IC50, read-out: IC50 (growth of human cancer cells)): 3640 µM; IC50 (HT29; Homo sapiens, Table 3, HT-29, 24-h IC50, read-out: IC50 (growth of human cancer cells)): 3210 µM; IC50 (MIA-PaCa-2; Homo sapiens, MIA PaCa-2, Table 3, MIA PaCa2, 24-h IC50, read-out: IC50 (growth of human cancer cells)): 3080 µM; IC50 (MDA-MB231; Homo sapiens, MDA-MB-231, Table 3, MDA-MB231, 24-h IC50, read-out: IC50 (growth of human cancer cells)): 4050 µM; IC50 (MCF-7; Homo sapiens, MCF7, Table 3, MCF-7, 24-h IC50, read-out: IC50 (growth of human cancer cells)): 1780 µM
> 2000 µM	4000 µM	> 2000 µM	> 2000 µM	> 2000 µM	CC(=O)Oc1ccccc1C(=O)O [Aspirin, acetylsalicylic acid, reference compound]					> 2000 µM	
					CCOP(=O)(OCC)OCCCCOC(=O)C(C)c1ccc(-c2ccccc2)c(F)c1 (stereo not drawn) [Phospho-Flurobiprofen]	42 % control	1.7%	5.3%	20.6%	34 µM	IC50 (SW480; [13]): 104 µM; IC50 (HT29; [14]): 80 µM; IC50 (MIA-PaCa-2; [15]): 135 µM; IC50 (MDA-MB231; [16]): 17 µM; IC50 (MCF-7; [17]): 65 µM
1060 µM	1550 µM	1280 µM	748 µM	1230 µM	CC(C)Cc1ccc(C(C)C(=O)O)cc1 (stereo not drawn) [Ibuprofen, ibuprofen, reference compound]					1060 µM	
					CCOP(=O)(OCC)OCCCCOC(=O)CC1=C(C)/C(=C/c2ccc(SC)cc2)c2ccc(F)cc21 [Phospho-sulindac II]	52 % control	2.6%	5.0%	23.2%	32 µM	IC50 (SW480; [13]): 73 µM; IC50 (HT29; [14]): 70 µM; IC50 (MIA-PaCa-2; [15]): 92 µM; IC50 (MDA-MB231; [16]): 18 µM; IC50 (MCF-7; [17]): 38 µM
1220 µM	1670 µM	1270 µM	823 µM	1430 µM	CC(C(=O)O)c1ccc(-c2ccccc2)c(F)c1 (stereo not drawn) [Flurobiprofen, flurbiprofen, reference compound]					825 µM	
					CCCC(CCC)C(=O)Oc1ccc(COP(=O)(OCC)OCC)cc1 [Phosoho-VPA]						IC50 (BxPC-3; [18]): 36 µM; IC50 (SW480; Homo sapiens, SW480, 24 h, read-out: IC50 (growth of human cancer cells)): 59 µM; IC50 (HT29; Homo sapiens, HT-29, 24 h, read-out: IC50 (growth of human cancer cells)): 13 µM; IC50 (MIA-PaCa-2; Homo sapiens, MIA PaCa-2, 24 h, read-out: IC50 (growth of human cancer cells)): 89 µM; IC50 (MDA-MB231; Homo sapiens, MDA-MB-231, 24 h, read-out: IC50 (growth of human cancer cells)): 30 µM; IC50 (MCF-7; Homo sapiens, MCF7, 24 h, read-out: IC50 (growth of human cancer cells)): 51 µM

Structure (SMILES)	IC50 (SW480; [19])	IC50 (HT29; [20])	IC50 (MIA-PaCa-2; [21])	IC50 (MDA-MB231; [22])	IC50 (MCF-7; [23])	Proliferation (% control) [1]	Necrosis (%) [2]	Early apoptosis (%) [2]	Late apoptosis (%) [2]	IC50 (BxPC-3; [12])	other results
CC1=C(CC(=O)O)c2cc(F)ccc2C1=Cc1ccc([S+](C)[O-])cc1 (stereo not drawn) [Sulindac, 2-[6-fluoro-2-methyl-3-[(4-methylsulfinylphenyl)methylidene]inden-1-yl]-acetic acid, reference compound]	900 µM	1170 µM	1040 µM	530 µM	1130 µM					489 µM	increase of SSAT activity [3]: 2.5 fold; effect on formation of tumors in the colon of Min mice (APC^Min/+ mice): stimulates the formation of tumors in the colon; increase of SSAT activity [4]: 1.5 fold; mortality [5]: 75%
